Test results taken from ChEMBL document CHEMBL5154654, “Design, synthesis and biological evaluation of 7-((7H-pyrrolo[2,3-d]pyrimidin-4-yl)oxy)-2,3-dihydro-1H-inden-1-one derivatives as potent FAK inhibitors for the treatment of ovarian cancer” (Eur J Med Chem, 2022).
In brackets after ≈: the same amount, converted by molar mass.

Legend:
Focal adhesion kinase 1 = Focal adhesion kinase 1 (Homo sapiens, UniProt Q05397); experiment: Inhibition of FAK (unknown origin) using Fluorescein-Poly GAT as substrate incubated for 30 mins and measured after 60 mins by Lanthascreen assay
Homo sapiens = species on record: Homo sapiens; experiment: Inhibition of MEK (unknown origin) at 1 uM incubated for 40 mins in presence of Mg/ATP mix relative to control
[1] = biological target: Receptor-type tyrosine-protein kinase FLT3 (Homo sapiens) (UniProt P36888); experiment: Inhibition of FLT3 (unknown origin) at 1 uM incubated for 40 mins in presence of Mg/ATP mix relative to control
[2] = Aqueous solubility of compound; type: physicochemical; settings: aqueous (not further specified)
[3] = Metabolic stability in human liver microsomes assessed as half-life incubated for 120 mins in presence of NADPH by LC-MS/MS analysis; type: ADME, Microsome
[4] = Metabolic stability in human liver microsomes assessed as intrinsic clearance incubated for 120 mins in presence of NADPH by LC-MS/MS analysis; type: ADME, Microsome; settings: read-out: CLH
[5] = Metabolic stability in human liver microsomes assessed as parent compound remaining incubated for 120 mins in presence of NADPH by LC-MS/MS analysis; type: ADME, Microsome; settings: read-out: Stability

Chain of Focal adhesion kinase 1 (Q05397 whole entry): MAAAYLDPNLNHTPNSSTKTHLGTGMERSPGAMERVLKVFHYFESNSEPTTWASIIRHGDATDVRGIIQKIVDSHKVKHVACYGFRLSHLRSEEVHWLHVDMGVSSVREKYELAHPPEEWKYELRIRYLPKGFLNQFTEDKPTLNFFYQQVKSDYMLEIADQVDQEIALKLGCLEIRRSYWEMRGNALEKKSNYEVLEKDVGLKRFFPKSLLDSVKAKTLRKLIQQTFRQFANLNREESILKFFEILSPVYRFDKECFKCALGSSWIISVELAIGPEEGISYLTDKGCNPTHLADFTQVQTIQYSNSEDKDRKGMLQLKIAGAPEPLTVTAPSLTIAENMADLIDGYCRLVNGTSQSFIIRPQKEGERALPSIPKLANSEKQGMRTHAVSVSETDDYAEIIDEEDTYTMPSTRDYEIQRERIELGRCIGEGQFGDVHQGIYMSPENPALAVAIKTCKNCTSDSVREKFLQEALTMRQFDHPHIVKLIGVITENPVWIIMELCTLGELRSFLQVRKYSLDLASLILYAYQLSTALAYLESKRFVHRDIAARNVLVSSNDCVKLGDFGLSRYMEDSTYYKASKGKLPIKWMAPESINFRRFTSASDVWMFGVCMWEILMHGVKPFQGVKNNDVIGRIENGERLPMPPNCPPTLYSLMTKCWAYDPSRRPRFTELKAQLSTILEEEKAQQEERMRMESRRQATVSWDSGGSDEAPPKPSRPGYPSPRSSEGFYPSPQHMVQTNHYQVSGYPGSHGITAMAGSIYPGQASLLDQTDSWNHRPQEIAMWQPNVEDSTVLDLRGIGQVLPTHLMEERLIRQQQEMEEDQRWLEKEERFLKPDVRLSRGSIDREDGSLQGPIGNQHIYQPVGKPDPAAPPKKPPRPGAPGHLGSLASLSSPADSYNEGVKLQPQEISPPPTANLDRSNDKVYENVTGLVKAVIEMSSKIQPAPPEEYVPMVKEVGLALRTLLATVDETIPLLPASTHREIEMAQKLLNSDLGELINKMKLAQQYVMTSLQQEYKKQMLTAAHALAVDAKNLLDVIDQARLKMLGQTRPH
Chain of Receptor-type tyrosine-protein kinase FLT3 (Homo sapiens) (P36888 whole entry): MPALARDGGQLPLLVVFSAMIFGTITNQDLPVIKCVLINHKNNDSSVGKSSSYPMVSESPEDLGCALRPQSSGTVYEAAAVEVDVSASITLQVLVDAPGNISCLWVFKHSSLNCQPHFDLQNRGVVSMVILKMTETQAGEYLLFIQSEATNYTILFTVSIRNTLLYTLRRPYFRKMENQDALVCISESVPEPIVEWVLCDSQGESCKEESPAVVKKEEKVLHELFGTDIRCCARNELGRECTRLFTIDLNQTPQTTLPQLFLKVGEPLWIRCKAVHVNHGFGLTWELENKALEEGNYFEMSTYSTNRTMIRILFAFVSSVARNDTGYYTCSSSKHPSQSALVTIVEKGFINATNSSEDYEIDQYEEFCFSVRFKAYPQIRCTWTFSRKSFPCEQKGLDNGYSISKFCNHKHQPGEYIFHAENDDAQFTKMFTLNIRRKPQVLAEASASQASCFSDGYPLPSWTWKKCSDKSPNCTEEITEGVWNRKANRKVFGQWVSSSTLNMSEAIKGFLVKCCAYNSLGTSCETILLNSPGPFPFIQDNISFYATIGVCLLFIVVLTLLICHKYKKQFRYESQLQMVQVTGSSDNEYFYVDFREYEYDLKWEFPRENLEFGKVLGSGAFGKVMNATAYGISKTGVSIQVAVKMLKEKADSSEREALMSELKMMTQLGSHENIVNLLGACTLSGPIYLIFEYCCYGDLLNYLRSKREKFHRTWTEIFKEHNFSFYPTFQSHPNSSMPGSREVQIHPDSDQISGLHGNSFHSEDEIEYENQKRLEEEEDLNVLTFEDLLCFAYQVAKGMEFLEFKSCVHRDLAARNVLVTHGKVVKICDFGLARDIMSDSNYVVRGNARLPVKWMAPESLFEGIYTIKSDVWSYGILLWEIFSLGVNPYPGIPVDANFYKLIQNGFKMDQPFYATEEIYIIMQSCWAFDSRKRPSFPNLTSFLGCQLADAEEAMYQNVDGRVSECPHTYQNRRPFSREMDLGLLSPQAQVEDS

| SMILES | IC50 (Focal adhesion kinase 1) | other results |
| --- | --- | --- |
| COc1cc(N2CCOCC2)ccc1Nc1nc(Oc2cccc3c2C(=O)CC3)c2[nH]ccc2n1 | > 1000 nM |  |
| Cc1cc(N2CCN(C)CC2)ccc1Nc1nc(Oc2cccc3c2C(=O)CC3)c2cc[nH]c2n1 | 7.13 nM |  |
| COc1cc(N2CCN(C)CC2)ccc1Nc1nc(Oc2cccc3c2C(=O)CC3)c2ccccc2n1 | 231 nM |  |
| COc1cc(N2C[C@@H]3C[C@H]2CO3)ccc1Nc1nc(Oc2cccc3c2C(=O)CC3)c2cc[nH]c2n1 | 9.6 nM |  |
| CNC(=O)c1ccc(Nc2ncc(C(F)(F)F)c(NCc3nccnc3N(C)S(C)(=O)=O)n2)cc1 |  | inhibition (Homo sapiens): > 90%; inhibition [1]: > 90% |
| CN1CCN(c2ccc(Nc3nc(Oc4cccc5c4C(=O)CC5)c4sccc4n3)cc2)CC1 | 110 nM |  |
| Cc1ccc(Oc2nc(Nc3ccc(N4CCC(N5CCN(C)CC5)CC4)cc3)nc3[nH]ccc23)c2c1CCC2=O | 2.47 nM | solubility [2]: 38 µg/mL (≈ 68.9 µM); half-life [3]: 94 min; CLint scaled [4]: 93 mL/min/kg; remaining at 2 h [5]: 41.5% |
| Cc1cc(Nc2nc(Oc3cccc4c3C(=O)CC4)c3cc[nH]c3n2)ccc1N1CCN(CC2CC2)CC1 | 4.2 nM | half-life [3]: < 30 min; CLint scaled [4]: > 29 mL/min/kg; remaining at 2 h [5]: 15.3% |
| O=C1CCc2cccc(Oc3nc(Nc4ccc(N5CCOCC5)cc4)nc4ccsc34)c21 | 245 nM |  |
| COc1cc(N2CCN(C)CC2)ccc1Nc1nc(Oc2cccc3c2C(=O)CC3)c2ccsc2n1 | > 1000 nM |  |
| Cc1cc(Nc2nc(Oc3cccc4c3C(=O)CC4)c3cc[nH]c3n2)n(C(C)C)n1 | 206 nM |  |
| COc1cc(N2CCC(N3CCN(C)CC3)CC2)ccc1Nc1nc(Oc2cccc3c2C(=O)CC3)c2sccc2n1 | 27.4 nM |  |
| CN1CCN(c2ccc(Nc3nc(Oc4cccc5c4C(=O)CC5)c4[nH]ccc4n3)cc2)CC1 | > 1000 nM |  |
| COc1cc(N2CCN(C)CC2)ccc1Nc1nc(-c2cnn(C)c2)c2cc[nH]c2n1 | 330 nM |  |
| Cc1cc(Nc2nc(Oc3cccc4c3C(=O)CC4)c3cc[nH]c3n2)ccc1N1CCN(C2COC2)CC1 | 6.32 nM |  |
| COc1cc(N2CCOCC2)ccc1Nc1nc(Oc2cccc3c2C(=O)CC3)c2ccccc2n1 | 654 nM |  |
| CN1CCN(c2ccc(Nc3nc(Oc4cccc5c4C(=O)CC5)c4cc[nH]c4n3)cc2C#N)CC1 | 20.6 nM |  |
| COc1cc(N2CCN(C)CC2)ccc1Nc1nc(-n2ccc3ccccc32)c2cc[nH]c2n1 | 166 nM |  |
| CN1CCN(c2ccc(Nc3nc(Oc4cccc5c4C(=O)CC5)c4cc[nH]c4n3)cc2Cl)CC1 | 4.8 nM | half-life [3]: 46.5 min; CLint scaled [4]: 18.7 mL/min/kg; remaining at 2 h [5]: 15.7% |
| COc1cc(N2CCC(N3CCN(C)CC3)CC2)ccc1Nc1nc(-n2cnc3ccccc32)c2cc[nH]c2n1 | 27.6 nM |  |
| COc1cc(N2CCC(N3CCN(C)CC3)CC2)ccc1Nc1nc(Oc2cccc3c2C(=O)CC3)c2ccccc2n1 | 246 nM |  |
| O=C1CCc2cccc(Oc3nc(Nc4ccc(N5CCOCC5)cc4)nc4cc[nH]c34)c21 | > 1000 nM |  |
| O=C1NCc2cc(Nc3nc(Oc4cccc5c4C(=O)CC5)c4cc[nH]c4n3)ccc21 | 20.6 nM |  |
| COc1cc(N2CCOCC2)ccc1Nc1nc(Oc2cccc3c2C(=O)CC3)c2cc[nH]c2n1 | 1140 nM |  |
